From patent US20060079497A1, “Lavendamycin analogues and methods of synthesizing and using lavendamycin analogues” (Ball State University, priority 2004, published 2006)

Key:
mice [1] = conditions: cited from earlier work
[2] = Cytotoxicity assay (MTT), human lymphocytic cell lines, pooled data; type: cell-based; conditions: human lymphocytic cell lines CCRF-CEM and H-9, pooled data, H-9 and CEM inhibited by 50%, read-out: Mean CC50 (Human Cell Lines) ± SEM (no. of expts)
Experimental: (§1) Normal murine spleen cells were washed in HBSS, cultured at 2.5×10^6 or 5×10^6 cells per mL in RPMI 1640 (with Hepes) complete medium with 2 mM-L-glutamine, 1 mM sodium pyruvate, 0.05 mM β-mercaptoethanol, penicillin, streptomycin, and amphotericin B with 10% fetal calf serum and Concanavalin A (ConA) at 2.5 μg/mL in a 96-well microtiter plate. A range of diluted analogs were added to triplicate culture wells and the cells were incubated at 37° C. in 5% CO2. Wells containing cells, media and ConA were used as controls. Forty-eight hours post incubation, 20 μL of the vital dye MTT (3-[4,5-Dimethylthiazol-2-yl]-2,5-diphenyltetrazolium bromide; thiazolyl blue) at 5 mg/mL was added to each well and the cultures re-incubated for 4-6 hours. Following centrifugation, the supernatants were decanted and the stained cells were resuspended in 100 μL of 0.4% HCl acidified isopropanol. The optical densities of each well were read at 600 nm using a Cambridge Technologies series 700 microplate reader. The human lymphocytic cell lines CCRF-CEM (ATCC: HTB 176) and H-9 (ATCC: CCL 119) were subcultured from recently cultured cells grown in complete RPMI 1640 medium as described above but without the β-mercaptoethanol and ConA at 6.25×10^5 and 2×10^6 per mL in a 96 well culture plate. These cell numbers represented log phase and early stationary phase of the freshly cultured cells. As these cell lines rapidly reproduce without mitogenic stimulation, Con A was not used. A range of analogues or media alone was added in triplicate to the cultures and the cultures incubated, pulsed with MTT, harvested and their growth estimated as described above for the murine cultures. The CC50 or the concentration of drug which inhibited cell growth as estimated by MTT formazan production to 50% of that of untreated control cells was determined by linear interpolation for each lavendamycin analog.

[3] = Cytotoxicity assay (MTT), normal murine spleen cells stimulated with concanavalin A; type: cell-based; conditions: normal murine spleen cells stimulated with concanavalin A; normal mouse spleen stimulated with concanavalin A inhibited by 50%; read-out: Mean CC50 (Normal Mouse Spleen) ± SEM (no. of expts)
Experimental: as §1

[4] = molecular target: T1, HIV reverse transcriptase (HIV-RT) (Human immunodeficiency virus type 1 group M subtype B, UniProt P04585); experiment: HIV-RT assay (3H-TTP incorporation, modified assay of Okada et al.); type: biochemical; conditions: Mean IC50 ± SEM (no. of expts), 50% inhibition of HIV RT activity toward 1 unit of enzyme
T1 construct: 1 unit/mL of HIV-RT (Worthington Biochemical Corp., Freehold, N.J.); purchased Worthington Biochemical Corp., Freehold, N.J
Experimental: Briefly, the analogues were initially dissolved in either DMSO or HEPES buffer (pH 7.2) and then diluted to the appropriate concentration before addition to the assay mixtures. […] Several control wells without any inhibitors were also included on each microtiter plate. The reactions were allowed to proceed for 1 h at 37° C. […] A more detailed description of reaction conditions is provided below in the Examples. The concentration of drug which inhibited 50% of the enzyme activity (IC50) was determined by using the computer software program Calcusyn, which plots the dose-effect curves from the inhibition data and calculates the IC50 for each drug.
The assay procedure described below is adapted from Okada et al. (Okada, H.; Mukai, H.; Inouye, Y; Nakamura, S. “Biological Properties of Streptonigrin Derivatives II. Inhibition of Reverse Transcriptase Activity,” J. Antibiot., 1986, 39, 306-308). The lavendamycin analogs were initially dissolved in DMSO at a concentration of 1 mg/mL. Occasionally, mild sonication and heat were used to dissolve the less soluble compounds. The dissolved analogs were then serially diluted in distilled water to achieve concentrations in the final reaction mixture ranging from 0.5-15 μM. In addition to the lavendamycin analogs, the final reaction mixture contained 100 mM Tris-HCl (pH 8.0), 5 mM MgCl2, 5 mM dithiothreitol, 60 mM NaCl, 0.2 mM [^3H] thymidine triphosphate(5 μCi well), 4 μg/mL poly (rA)-oligo(dT)12-18 (Amersham Pharmacia Biotech, Piscataway, N.J.) and 1 unit/mL of HIV-RT (Worthington Biochemical Corp., Freehold, N.J.) in a total volume of 300 μL. For each assay, the reaction mixture containing 8× buffer, double distilled H2O, ^3HTTP, template-primer and HIV-RT was pre-mixed in a 15-mL sterile tube in quantities required for the particular experiment. After adding the enzyme, the reaction mixture was mixed and kept on ice. The inhibitors, either AZT(Moravek Biochemicals, Brea, Calif.), analogs or both were added to appropriate wells in a 24 well microtiter plate and ddH2O was added to each well to bring the volume of all test wells to 100 μL. Two hundred μL of the chilled reaction mixture was then added to each of the test wells, mixed, and incubated for 1 hr at 37° C. Several control wells with no inhibitors were included on each test plate. After stopping the reactions with 25 μL 0.1 M EDTA, triplicate samples of 15 μL from each test well were spotted on DE81 ion exchange filter paper squares (Whatman Paper, Maidstone, England). After drying, each filter was washed for 10 minutes three times with 5% TCA-NHPO4, three times with 0.6M NaCl-[…] Na Citrate, one time with ddH2O and one time with 95% ethanol. After drying the individual filter papers were added to 5 mL Scintiverse E (Fisher Scientific, Chicago, Ill.) scintillation fluid and the amount of 3H-TTP uptake measured as counts per minute on a Beckman liquid scintillation counter. […] The results were then analyzed using Calcusyn, a windows software program for dose effect analysis designed by T. -C. Chou and M. P. Hayball and published by Biosoft® (UK).

tumor = experiment: Antitumor activity (applicant's earlier studies)
[5] = Animal toxicity studies in mice (National Cancer Institute and other studies); conditions: mouse, in vivo
mice [6] = experiment: Animal toxicity studies in mice (National Cancer Institute and other studies); conditions: SCID mice, 300 mg/kg/day for 10 days

COC1=C(N)C(=O)c2nc(-c3nc(C(=O)O)c(C)c(-c4ccc(OC)c(OC)c4O)c3N)ccc2C1=O [streptonigrin]
lethal dose (mice [1]): ≥ 0.4 mg/kg

NC(=O)c1cc2c([nH]c3ccccc32)c(-c2ccc3c(n2)C(=O)C(N)=CC3=O)n1 [Compound 21, Demethyllavendamycin Amide]
CC50 at 48 h [2]: 17 ± 3 µM | CC50 at 48 h [3]: 15 ± 2 µM | IC50 [4]: 20.5 ± 5 µM | antitumor activity (tumor): highly active antitumor agents | MTD [5]: 400 mg/kg

COC(=O)c1nc(-c2ccc3c(n2)C(=O)C(N)=CC3=O)c2[nH]c3ccccc3c2c1C [Compound 2b, lavendamycin methyl ester, reference compound]
antitumor activity (tumor): highly active antitumor agents

Cc1c(C(=O)O)nc(-c2ccc3c(n2)C(=O)C(N)=CC3=O)c2[nH]c3ccccc3c12 [lavendamycin]
maximum tolerated dose (mice [1]; reported): 12.8 mg/kg

COC(=O)c1nc(-c2ccc3c(n2)C(=O)C(N)=C(OC)C3=O)c2[nH]c3ccccc3c2c1C
melting point: > 280 °C

COc1cccc2c1C(=O)c1c(O)c3c(c(O)c1C2=O)C[C@@](O)(C(=O)CO)C[C@@H]3O[C@H]1C[C@H](N)[C@H](O)[C@H](C)O1 [adriamycin]
maximally tolerated dose (mice [1]; once a week for three weeks): below 10 mg/kg

CCCCCCCCOC(=O)c1cc2c([nH]c3ccccc32)c(-c2ccc3c(n2)C(=O)C(NC(C)=O)=CC3=O)n1 [Compound 15, 7-N-Acetyldemethyllavendamycin n-Octyl Ester]
tolerability (mice [6]): no animal death or loss of weight

COC(=O)c1cc2c([nH]c3ccccc32)c(-c2ccc3c(n2)C(=O)C(N)=C(OC)C3=O)n1
melting point: > 280 °C
